Assay results reported in PMC8443589, “Modelling human liver fibrosis in the context of non-alcoholic steatohepatitis using a microphysiological system” (Communications Biology, 2021).

What was measured:
[1] = tested on: liver MPS NASH model (PHH, KC and HSC co-cultures); test: Cue study: pro-fibrotic biomarkers TIMP-1, pro-collagen 1, fibronectin (Fig 5c); format: cell-based, human; conditions: for Fibronectin (Fold change in cytokine production compared to control) / Pro-collagen 1 (Fold change in cytokine production compared to control) / TIMP-1 (Fold change in cytokine production compared to control): fat medium + cue
Excerpt: Assessment of gene expression changes was supplemented by assessment of the secretome produced by NASH microtissues in the MPS after exposure to the various cues. Increased pro-inflammatory cytokine secretion is a defining characteristic in NASH patients, so we conducted a Luminex cytokine array covering 42 different biomarkers, cytokines and chemokines secreted into the culture media of the different microtissues at multiple time points. We consistently detected 27 out of the 42 biomarkers and observed that there was differential expression of cytokines and chemokines driven by the different cues applied to the micro-tissue (Fig. 5a, b). The LPS cue and the presence of higher NPC numbers were responsible for driving the largest increase in cytokine and chemokine release, with the largest increases in cytokines measured on day 14 (Fig. 5b). […] Similarly, to the cytokine production, these changes were not further enhanced by combining cues, as all the cue combinations containing TGFβ had the highest expression (Supp. Fig. 17c).
Fig. 5 Systems biology interrogation of liver MPS NASH model to determine physiologically relevant cues that promote soluble biomarker changes to mimic advanced NASH disease state. PHH, KC and HSC co-cultures were cultured in the MPS platform under a variety of conditions for 14 days to test number of NPCs, presence of fat, fructose, cholesterol, LPS and TGFβ for effects on the soluble biomarker profile of the liver MPS NASH model. Expression of biomarkers, cytokines and chemokines were compared, all concentrations were normalised by Z-transformation to allow comparison and shown relative to mean for each marker (white = not detected). a Cytokine expression compared with varying levels of NPCs; b for the high NPC group in the presence of additional cues; c Expression of pro-fibrotic biomarkers with varying NPC content and with additional varying cues in high NPC condition (additional data in Supp. Fig. 17). d Graphical summary of the changes that occur in the NASH model in the presence of Fat and Fat + TGFβ. All data were generated from a minimum of three independent replicate samples per condition.
The MPS LC12 plates consists of 12 individual bioreactors that contain pneumatically driven micro-pumps to recirculate cell culture medium through a collagen-coated scaffold. Cells were cultured using the protocol previously described[20],[21], but briefly, PHH were seeded at a density of 6 × 10^5 viable cells per well on the LC12 plates with each NPC population (KC and/or HSC) at a density of 6 × 10^4 viable cells per well. Each well contained a final volume of 1.6 mL of medium per well and maintained under a flow rate of 1.0 µL/s. Cells were seeded in Williams E medium containing primary hepatocyte thawing and plating supplements (Life Technologies, USA) and cultured initially under downward flow for 8 h before the flow was automatically reversed to upward flow for the next 16 h of culture. Microtissues were then cultured in either HEP-Lean or HEP-Fat medium, both media’s are proprietary to CN Bio Innovations Ltd. The HEP-Fat medium is a derivative of the HEP-LEAN medium and contains a mixture of saturated and unsaturated FFAs, as well as physiologically relevant quantities of insulin and sugars. Complete media changes were performed on all wells every 48–72 h. For certain experiments, the media was supplemented with additional additives from day 4 onwards: 1 ng/ml LPS (lipopolysaccharides from Escherichia coli O111:B4) (Sigma Aldrich, UK), 1 ng/ml recombinant TGF beta 1 protein (Abcam, UK); 500 µM Fructose (Sigma Aldrich, UK), 50 µg/ml Cholesterol (Sigma Aldrich, UK). […]

[2] = tested on: liver MPS NASH model (PHH, KC and HSC co-cultures); test: Cue study: albumin production (ELISA); format: cell-based, human
[3] = set-up: method as in PMID 27743502; conditions: cited from earlier work

| Compound | Fibronectin (Fold change in cytokine production compared to control) ([1]; Day 6, high NPC) | Pro-collagen 1 (Fold change in cytokine production compared to control) ([1]; Day 6, high NPC) | TIMP-1 (Fold change in cytokine production compared to control) ([1]; Day 6, high NPC) | Fibronectin (Fold change in cytokine production compared to control) ([1]; Day 11, high NPC) | Pro-collagen 1 (Fold change in cytokine production compared to control) ([1]; Day 11, high NPC) | TIMP-1 (Fold change in cytokine production compared to control) ([1]; Day 11, high NPC) | Fibronectin (Fold change in cytokine production compared to control) ([1]; Day 14, high NPC) | Pro-collagen 1 (Fold change in cytokine production compared to control) ([1]; Day 14, high NPC) | TIMP-1 (Fold change in cytokine production compared to control) ([1]; Day 14, high NPC) | pro-collagen 1, fibronectin and TIMP-1 expression ([1]; cue study) | Albumin production [2] | Plasma protein binding [3] [%] |
| --- | --- | --- | --- | --- | --- | --- | --- | --- | --- | --- | --- | --- |
| TGFβ: recombinant TGF beta 1 protein (Abcam), 1 ng/ml cue | 1.218 | 1.954 | 2.132 | 1.379 | 1.672 | 1.0946 | 0.05285 | 0.4105 | 0.9486 | most significant increases | reduced albumin production | – |
| CC[C@H]1[C@@H](O)[C@@H]2[C@H](CC[C@]3(C)[C@@H]([C@H](C)CCC(=O)O)CC[C@@H]23)[C@@]2(C)CC[C@@H](O)C[C@@H]12 [Obeticholic acid] | – | – | – | – | – | – | – | – | – | – | – | >99 |
